Measured values reported in the NIST ThermoML archive (doi:10.1021/je049559v).
Several values for one entry are separate records, joined by “and”; a condition that tells them apart may be missing. Equal values may be shown once.

Settings: Liquid; for viscosity: Capillary tube (Ostwald / Ubbelohde) method; for mass density: Vibrating tube method

COCOC [dimethoxymethane]
Settings	mass density [kg/m3]	viscosity
218.09 K	–	1.263 mPa·s
223.09 K	–	1.099 mPa·s
228.1 K	–	0.9649 mPa·s
228.11 K	–	0.9648 mPa·s
233.1 K	–	0.8557 mPa·s and 0.8556 mPa·s
233.16 K	935.5	–
238.11 K	–	0.7648 mPa·s
243.14 K	–	0.6886 mPa·s
243.15 K	–	0.6885 mPa·s
243.16 K	923.8	–
248.14 K	–	0.6248 mPa·s
253.13 K	–	0.5705 mPa·s
253.14 K	–	0.5705 mPa·s
253.16 K	912.4	–
258.12 K	–	0.524 mPa·s
258.15 K	–	0.5238 mPa·s
263.07 K	–	0.4841 mPa·s
263.09 K	–	0.4839 mPa·s
263.15 K	899.6	–
268.09 K	–	0.4489 mPa·s
273.05 K	–	0.4183 mPa·s
273.15 K	886	–
278.05 K	–	0.3912 mPa·s
283.1 K	–	0.3669 mPa·s
283.15 K	872.3	–
288.17 K	–	0.3452 mPa·s and 0.3451 mPa·s
293.09 K	–	0.3262 mPa·s
293.15 K	858.1	–
298.12 K	–	0.3086 mPa·s
298.13 K	–	0.3086 mPa·s
303.12 K	–	0.2927 mPa·s
303.13 K	–	0.2927 mPa·s
303.15 K	842.8	–
308.16 K	–	0.2781 mPa·s
308.17 K	–	0.2781 mPa·s
313.15 K	827.9	–
313.16 K	–	0.2647 mPa·s
318.16 K	–	0.2524 mPa·s
318.17 K	–	0.2524 mPa·s
323.15 K	–	0.241 mPa·s and 0.2409 mPa·s
323.16 K	814.1	–
328.14 K	–	0.2303 mPa·s
333.14 K	–	0.2202 mPa·s
333.15 K	800	0.2202 mPa·s
338.15 K	–	0.2107 mPa·s
343.15 K	785.2	0.2017 mPa·s
348.16 K	–	0.1931 mPa·s
353.12 K	–	0.185 mPa·s
353.13 K	–	0.185 mPa·s
353.16 K	770.8	–
358.16 K	–	0.1771 mPa·s
363.11 K	755.9	–
363.15 K	–	0.1696 mPa·s
368.14 K	–	0.1624 mPa·s
368.16 K	–	0.1623 mPa·s
373.14 K	–	0.1554 mPa·s
378.15 K	–	0.1486 mPa·s
383.15 K	–	0.142 mPa·s
383.16 K	–	0.142 mPa·s
